The record followed here is patent US4980359A, “Isoquinoline derivatives and their use” (Sandoz Ltd., priority 1988, dated 1990).

Assay [1] deals with PAF-induced lung eosinophil accumulation. Kind of assay: Inhibition of eosinophil accumulation (PAF-induced lung eosinophilia). Conditions: Cavia porcellus, sc, 168 h, method C, over 7 days. The format is in vivo, Guinea-pigs (Dunkin-Hartley). On the procedure:
EXAMPLE C: INHIBITION OF EOSINOPHIL ACCUMULATION
Guinea-pigs (Dunkin-Hartley 400-600 g) are injected intraperitoneally with 10 μg/kg of PAF, a procedure which produces lung eosinophilia.
Animals are sacrificed with pentobarbital (100 mg/kg i.p.) 24 hours later. The trachea is exposed and cannulated and the airway lumen washed by introduction and aspiration of 10 ml aliquots (x6) of buffered modified Tyrode solution (composition mM: NaHCO3 11.9, NaCl 136.9, KCl 2.7, Na2 HPO4, glucose 5.6, EDTA 19.8; protein % w/v=gelatin 0.1, BSA 0.5; pH to 7.4 by addition of 2N NaOH). Total fluid recovery generally exceeds 80%.
Cell suspensions are concentrated by low speed centrifugation (200 g for 10 mins.) and the resulting cell pellet is resuspended in 1 ml modified Tyrode solution. Total cell counts are effected in a haemocytometer by diluting 10 μl cell suspension in 90 μl Turks fluid. Differential cell counts are made from smears fixed in 100% methanol and stained with Leishman stain. At least 500 cells smear are counted at 1000 fold magnification to differentiate cell types.
Test compound is administered over 7 days at varying concentration in 1 mg/kg s.c. amounts with exposure to PAF occurring 5 days after commencement of test compound administration. […]

In assay [2] the test system is bombesin-induced bronchospasm. Kind of assay: Bronchodilator activity in vivo (reversal of bombesin-induced bronchospasm). Conditions: Cavia porcellus, method A.2, intra. duodenally. Also noted: species or system Guinea pigs (Dunkin-Hartley). On the procedure:
2. Bronchodilator activity in vivo
Guinea pigs (Dunkin-Hartley, .male., 400-600 g) are anesthetized with phenobarbital (100-mg/kg i.p.) and pentobarbital (30 mg/kg i.p.) and paralyzed with gallamine (10 mg/kg i.m.). Animals are ventilated via a tracheal cannula (10 ml/kg, 1Hz.). Blood pressure and heart rate are recorded at the carotid artery. Ventilation is monitored by a Fleisch flow transducer in lien with the inspiratory circuit. When making measurements of flow, coincident pressure changes in the thorax are monitored directly via an intrathoracic trochar, permitting display of differential pressure relative to the trachea. From this information resistance and compliance are calculated at each inspiration.
Continuous intravenous infusion of bombesin (50-100 ng/kg/min) induces sustained bronchospasm. Capacity of test-substance to reverse response when administered intra-duodenally via a 12 gauge metal needle fixed by a purse string ligature into the peripheral end of the transected duodenum serves as a measure of efficacy in reversing established bronchospasm.
The bronchodilator response is taken as the percentage reduction of the maximal response to bombesin, measured at regular intervals, up to 64 mins..

Assay [3] relates to PAF-induced airways hyperreactivity. Kind of assay: Suppression of airways hyperreactivity, PAF-treated animals. The format is in vivo, Guinea-pigs. Conditions: Cavia porcellus, iv, method B. On the procedure:
Guinea-pigs are anesthetized and prepared for recording of lung function as described under example A.2. above. Intravenous injection of low dose bombesin (240 ng/kg) establishes airways sensitivity to spasmogens. Following infusion of PAF (platelet activating factor) over 1 hr.

In assay [4] the test system is guinea-pig tracheal ring preparations. Kind of assay: Bronchospasmolytic activity in vitro (relaxation of tracheal rings). Conditions: Cavia porcellus; method A.1, guinea-pig tracheal rings in vitro. An excerpt:
1. Bronchospasmolytic activity in vitro
The trachea is excised from freshly sacrificed guinea-pigs (Dunkin-Hatley (350-500 g) and transected in the transverse plane to give rings of tissue of ca. 3-5 mm deep. Individual rings are mounted vertically on stainless steel supports, one of which is fixed at the base of an organ bath, the other being attached to an isometric transducer. The rings are bathed in Krebs solution (composition […]: NaHCO3 25, NaCl 113, KCl 4.7, MgSO4.7H2) 1.2, KHhd 2PO4 1.2, CaCl2 2.5, Glucose 11.7) at 37° C. and gassed with O2 /CO2 (95:5, v/v). Rings prepared in this manner, preloaded with 1 g, generate spontaneous tone and, after a period of equilibration (45-60 min.), relax consistently on addition of spasmolytic drugs. Tension can be enhanced by addition of carbachol (10^-6 M) or histamine (10^-4 M). To ascertain spasmolytic activity, test substances are dissolved in physiological saline and added in increasing quantities to the organ bath at 10 min. intervals to provide a cumulative concentration-effect curve.
In the above test model compounds of formula I and their pharmaceutically acceptable acid addition salts produce concentrationrelated relaxation of guinea-pig tracheal ring preparations irrespective of the contractile agency at concentrations of from about 10^-7 to about 10^-5 M.

A word on the ED50: it is the midpoint of the dose-response relation. For orientation: IC50 means the concentration at which inhibition is half-maximal.

`COCCOc1cc(OCCOC)cc(-c2nc(C)cc3cc(OC)c(OC)cc23)c1` [Example 12, 3-methyl-6,7-dimethoxy-1-(3,5-dimethoxyethoxy-phenyl)-isoquinoline]: the median effective dose (ED50) in assay [1] is less than 2 mg/kg; in assay [2] it was approximately 2 mg/kg; in assay [3], less than 1 mg/kg. The half-maximal inhibitory concentration (IC50) in assay [4] amounted to 0.3 µM.

`Cn1c(=O)c2[nH]cnc2n(C)c1=O` [Theophylline, theophylline]: the ED50 turned out to be 5 mg/kg in assay [1], 11 mg/kg in assay [2] and 5 mg/kg in assay [3]. Besides, the IC50 in assay [4] is 77 µM.
